From patent publication US6762160B2, “Composition for removing biofilms comprising a detergent and a salt forming acid” (Universite de Montreal, priority 1998, dated 2004)
“Also recorded” adds a separate entry of the source.

What was measured:
[1] = system: mature biofilms on lumen of dental unit waterlines tubings; assay: Biofilm removal from dental unit waterline tubing pieces, binocular microscope 40x, arbitrary scale; assay type: cell-based, dental unit waterlines bacteria; conditions: for detergent capable of dislodging biofilms: different types of detergents tried; for RESULTS AFTER DISINFECTION 1 hour (biofilm scale): key: −: no biofilm; ++++: + ++ + : no significant removal of film; for RESULTS AFTER DISINFECTION 18 hours (biofilm scale): key: −: no biofilm; ++++: + ++ + : no significant removal of film
Procedure: Two-cm long pieces of dental unit waterlines tubings were used. These tubings were taken from functional dental units installed at the faculty of dentistry of the University of Montreal. […] The pieces were sectioned longitudinally with a sterile scalpel blade to expose the biofilm. Another series of tubings was left untouched. Sections of tubings were placed in sterile 5 ml disposable test tubes containing solutions to be tested.
After 1 or 18 hours without agitation at room temperature, tubings were rinsed three times with sterile water.

[2] = system: dental unit waterlines bacteria; assay: Antibacterial activity: growth in R2Am medium after disinfection of tubings;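 note: disinfected tubing pieces kept 7 days at room temperature in R2Am medium, then scored for presence or absence of bacterial growth by absorbance at 590 nm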
Procedure: To test the antibacterial activity, we used the same setup as above. After the 1 or 18 hour incubation, tubings were rinsed with sterile water. Pieces of tubings were dropped in sterile test tubes containing 4 ml of R2Am medium. Test tubes were capped and incubated for 7 days at room temperature. […] Data were recorded as presence or absence of growth with a spectrophotometer at λ=590 nm.

Mycobacterium sp. = assay type: cell-based
[3] = acid 1% in H2O2 5%/EDTA 1%/SDS 1% solution, pH 5.0, 1 hour or 18 hours
[4] = selected acid 1% with H2O2 5%, EDTA 1%, SDS 1%, pH 5,0, tubing incubated 7 days in R2Am, 590 nm
[5] = selected acid 1% with H2O2 5%, EDTA 1%, SDS 1%, pH 5,0, 1 hour contact, room temperature, no agitation
[6] = selected acid 1% with H2O2 5%, EDTA 1%, SDS 1%, pH 5,0, 18 hours contact, room temperature, no agitation

Molecule: R-Chloromandelic Acid
- acceptably performing acids: decontamination within the specified times [1, 3]: sufficient decontamination
- RESULTS AFTER DISINFECTION Growth [2, 4]: −

Molecule: O=C(O)CNCC(=O)O [Iminodiacetic Acid]
- RESULTS AFTER DISINFECTION 1 hour (biofilm scale) [1, 5]: −
- RESULTS AFTER DISINFECTION 18 hours (biofilm scale) [1, 6]: −
- RESULTS AFTER DISINFECTION Growth [2, 4]: −

Molecule: O=C(O)CCC(=O)C(=O)O [2-Ketoglutaric Acid]
- RESULTS AFTER DISINFECTION 1 hour (biofilm scale) ([1]; pH 5): −
- RESULTS AFTER DISINFECTION 18 hours (biofilm scale) ([1]; pH 5): −
- RESULTS AFTER DISINFECTION Growth ([2]; pH 5): −

Molecule: N[C@H](Cc1ccccc1)C(=O)O [D-Phenylalanine]
- RESULTS AFTER DISINFECTION Growth [2, 4]: −

Molecule: CC(O)C(=O)O (centres unmarked) [Lactic Acid]
- RESULTS AFTER DISINFECTION Growth [2, 4]: −

Molecule: Ketopimelic Acid
- acceptably performing acids: decontamination within the specified times [1, 3]: sufficient decontamination
- RESULTS AFTER DISINFECTION Growth [2, 4]: −

Molecule: OB(O)O [Boric Acid (B(OH)3), Boric Acid]
- acceptably performing acids: decontamination within the specified times [1, 3]: sufficient decontamination
- RESULTS AFTER DISINFECTION Growth [2, 4]: −

Molecule: O=C(O)C(=O)O [Oxalic Acid]
- acceptably performing acids: decontamination within the specified times [1, 3]: sufficient decontamination
- RESULTS AFTER DISINFECTION Growth [2, 4]: −

Molecule: NC(Cc1ccc(O)cc1)C(=O)O (racemic) [DL-Tyrosine]
- acceptably performing acids: decontamination within the specified times [1, 3]: sufficient decontamination
- RESULTS AFTER DISINFECTION Growth [2, 4]: −

Molecule: O=C1O[C@H]([C@@H](O)CO)C(O)=C1O [L-Ascorbic Acid]
- RESULTS AFTER DISINFECTION 1 hour (biofilm scale) [1, 5]: ++++
- RESULTS AFTER DISINFECTION Growth [2, 4]: −

Molecule: O=C(O)CN(CC(=O)O)CC(=O)O [Nitrilotriacetic Acid]
- acceptably performing acids: decontamination within the specified times [1, 3]: sufficient decontamination
- RESULTS AFTER DISINFECTION Growth [2, 4]: −

Molecule: O=C(O)C(=O)c1ccccc1 [Benzoylformic Acid]
- acceptably performing acids: decontamination within the specified times [1, 3]: sufficient decontamination
- RESULTS AFTER DISINFECTION Growth [2, 4]: −

Molecule: Oc1ccccc1 [phenol]
- bactericide tried in cleaning solution [2]: success
- killing activity of bactericide, even against Mycobacterium sp. (Mycobacterium sp.): efficient

Molecule: CC(N)C(=O)O (racemic) [DL-Alanine]
- RESULTS AFTER DISINFECTION 18 hours (biofilm scale) [1, 6]: −
- RESULTS AFTER DISINFECTION Growth [2, 4]: −

Molecule: OO [hydrogen peroxide, Hydrogen peroxide]
- growth after treatment ([2]; hydrogen peroxide 5% in Table 1 solutions): total absence of growth
- killing activity of bactericide, even against Mycobacterium sp. (Mycobacterium sp.): broad host killing activity; also recorded: efficient

Molecule: O=C(O)C(O)C(O)C(=O)O [D-Tartric acid]
- RESULTS AFTER DISINFECTION Growth [2, 4]: −

Molecule: O=C(O)CN(CCO)CCO [Bicine]
- acceptably performing acids: decontamination within the specified times [1, 3]: sufficient decontamination
- RESULTS AFTER DISINFECTION Growth [2, 4]: −

Molecule: Sodium cocoyl sarcosinate [SCS]
- detergent capable of dislodging biofilms [1]: capable of dislodging biofilms

Molecule: N[C@@H](C(=O)O)c1ccccc1 [R-2-Phenylglycine]
- RESULTS AFTER DISINFECTION Growth [2, 4]: −

Molecule: O=C(O)c1ccccc1 [Benzoic Acid]
- acceptably performing acids: decontamination within the specified times ([1]; pH 5): sufficient decontamination
- RESULTS AFTER DISINFECTION Growth ([2]; pH 5): −

Molecule: CC(=O)C(=O)O [Pyruvic Acid]
- RESULTS AFTER DISINFECTION 18 hours (biofilm scale) [1, 6]: −
- RESULTS AFTER DISINFECTION Growth [2, 4]: −

Molecule: N[C@@H](CCC(=O)O)C(=O)O [Glutamic Acid]
- acceptably performing acids: decontamination within the specified times [1, 3]: sufficient decontamination
- RESULTS AFTER DISINFECTION Growth [2, 4]: −

Molecule: O=C(O)Cc1ccccc1 [Phenylacetic Acid]
- acceptably performing acids: decontamination within the specified times [1, 3]: sufficient decontamination
- RESULTS AFTER DISINFECTION Growth [2, 4]: −

Molecule: O=C(O)c1ccccc1C(=O)O [Phthalic Acid]
- acceptably performing acids: decontamination within the specified times [1, 3]: sufficient decontamination
- RESULTS AFTER DISINFECTION Growth [2, 4]: −

Molecule: O=C(O)CO [Glycolic Acid]
- RESULTS AFTER DISINFECTION 1 hour (biofilm scale) [1, 5]: −
- RESULTS AFTER DISINFECTION 18 hours (biofilm scale) [1, 6]: −
- RESULTS AFTER DISINFECTION Growth [2, 4]: −

Molecule: N[C@@H](Cc1c[nH]c2ccccc12)C(=O)O [L-Tryptophan]
- acceptably performing acids: decontamination within the specified times ([1]; pH 5): sufficient decontamination
- RESULTS AFTER DISINFECTION Growth ([2]; pH 5): −

Molecule: O=C(O)CC(=O)O [Malonic Acid]
- RESULTS AFTER DISINFECTION Growth [2, 4]: −

Molecule: CC(=O)O [Acetic Acid]
- salt-forming acid tried against biofilm ([1]; acetic acid 0.1% to 1%): very efficient
- RESULTS AFTER DISINFECTION 1 hour (biofilm scale) [1, 5]: −
- RESULTS AFTER DISINFECTION 18 hours (biofilm scale) [1, 6]: −
- RESULTS AFTER DISINFECTION Growth [2, 4]: −

Molecule: O=C(O)[C@@H](O)[C@H](O)[C@H](O)[C@@H](O)C(=O)O [Mucic Acid]
- RESULTS AFTER DISINFECTION 1 hour (biofilm scale) [1, 5]: −
- RESULTS AFTER DISINFECTION 18 hours (biofilm scale) [1, 6]: −
- RESULTS AFTER DISINFECTION Growth [2, 4]: −

Molecule: Sodium n-decyl diphenylether disulfonate [SDDD]
- detergent capable of dislodging biofilms [1]: capable of dislodging biofilms

Molecule: NCC(=O)O [Glycine]
- acceptably performing acids: decontamination within the specified times [1, 3]: sufficient decontamination
- RESULTS AFTER DISINFECTION Growth [2, 4]: −

Molecule: Povidone-iodine
- efficiency of bactericide combined to detergent ([1]; combined to the detergent Tween 20): significant efficiency
- detergent capable of dislodging biofilms [1]: capable of dislodging biofilms
- bactericide tried in cleaning solution [2]: success

Molecule: O=C(O)CC(O)C(=O)O (centres unmarked) [Malic Acid]
- acceptably performing acids: decontamination within the specified times [1, 3]: sufficient decontamination
- RESULTS AFTER DISINFECTION Growth [2, 4]: −

Molecule: NC(=O)C(=O)O [Oxamic Acid]
- acceptably performing acids: decontamination within the specified times [1, 3]: sufficient decontamination
- RESULTS AFTER DISINFECTION Growth [2, 4]: −

Molecule: O=C(O)CC(O)(CC(=O)O)C(=O)O [Citric Acid]
- acceptably performing acids: decontamination within the specified times [1, 3]: sufficient decontamination
- RESULTS AFTER DISINFECTION Growth [2, 4]: −

Molecule: O=C(O)/C=C\C(=O)O [Maleic Acid]
- acceptably performing acids: decontamination within the specified times [1, 3]: sufficient decontamination
- RESULTS AFTER DISINFECTION Growth [2, 4]: −

Molecule: Tetrasodium EDTA
- chelator tried against biofilms [1]: a certain degree of success

Molecule: O=C(O)/C=C/C(=O)O [Fumaric Acid]
- RESULTS AFTER DISINFECTION 1 hour (biofilm scale) [1, 5]: −
- RESULTS AFTER DISINFECTION 18 hours (biofilm scale) [1, 6]: −
- RESULTS AFTER DISINFECTION Growth [2, 4]: −

Molecule: N[C@@H](CC(=O)O)C(=O)O [L-Aspartic Acid]
- RESULTS AFTER DISINFECTION 18 hours (biofilm scale) [1, 6]: −
- RESULTS AFTER DISINFECTION Growth [2, 4]: −

Molecule: O=C(O)c1ccccc1O [Salicylic Acid]
- acceptably performing acids: decontamination within the specified times [1, 3]: sufficient decontamination
- RESULTS AFTER DISINFECTION Growth [2, 4]: −

Molecule: O=C(O)CCC(=O)O [Succinic Acid]
- acceptably performing acids: decontamination within the specified times [1, 3]: sufficient decontamination
- RESULTS AFTER DISINFECTION Growth [2, 4]: −

Molecule: O=C(O)CCCCC(=O)O [Adipic Acid]
- acceptably performing acids: decontamination within the specified times [1, 3]: sufficient decontamination
- RESULTS AFTER DISINFECTION Growth [2, 4]: −

Molecule: O=CO [Formic Acid]
- acceptably performing acids: decontamination within the specified times ([1]; pH 5): sufficient decontamination
- RESULTS AFTER DISINFECTION Growth ([2]; pH 5): −

Molecule: O=C(O)CCl [Chloroacetic Acid]
- RESULTS AFTER DISINFECTION 18 hours (biofilm scale) ([1]; pH 5): −
- RESULTS AFTER DISINFECTION Growth ([2]; pH 5): −

Molecule: O=C(O)C(O)c1ccccc1 (centres unmarked) [Mandelic Acid]
- salt-forming acid tried against biofilm ([1]; mandelic acid 1% to 10%): success
- RESULTS AFTER DISINFECTION 1 hour (biofilm scale) [1, 5]: −
- RESULTS AFTER DISINFECTION 18 hours (biofilm scale) [1, 6]: −
- RESULTS AFTER DISINFECTION Growth [2, 4]: −

Molecule: O=C[C@H](O)[C@@H](O)[C@H](O)[C@H](O)C(=O)O [Glucuronic Acid]
- acceptably performing acids: decontamination within the specified times [1, 3]: sufficient decontamination
- RESULTS AFTER DISINFECTION Growth [2, 4]: −

Molecule: O=P(O)(O)O [Phosphoric Acid (H3PO4), Phosphoric Acid]
- RESULTS AFTER DISINFECTION 18 hours (biofilm scale) [1, 6]: −
- RESULTS AFTER DISINFECTION Growth [2, 4]: −

Molecule: OCl [sodium hypochlorite]
- killing activity of bactericide, even against Mycobacterium sp. (Mycobacterium sp.): broad host killing activity; also recorded: efficient

Molecule: O=C(O)CNC(CO)(CO)CO [Tricine]
- acceptably performing acids: decontamination within the specified times [1, 3]: sufficient decontamination
- RESULTS AFTER DISINFECTION Growth [2, 4]: −

Molecule: O=C(O)C(Cl)Cl [Dichloroacetic Acid]
- acceptably performing acids: decontamination within the specified times ([1]; pH 5): sufficient decontamination
- RESULTS AFTER DISINFECTION Growth [2, 4]: −

Molecule: N[C@@H](CO)C(=O)O [L-Serine]
- acceptably performing acids: decontamination within the specified times [1, 3]: sufficient decontamination
- RESULTS AFTER DISINFECTION Growth [2, 4]: −

Molecule: CCCCCCCCCCCCOS(=O)(=O)[O-].[Na+] [SDS, Sodium dodecyl sulfate]
- biofilm removal efficiency after 18 hours ([1]; SDS 0.15% with 6% hydrogen peroxide, HEEDTA 0.3%, acetic acid 0.1%, zinc sulfate heptahydrate 0.1%, pH adjusted to 5, 18 hours): perfect efficiency
- biofilm removal activity after one hour ([1]; SDS 0.15% with 6% hydrogen peroxide, HEEDTA 0.3%, acetic acid 0.1%, zinc sulfate heptahydrate 0.1%, pH adjusted to 5, one hour, sulfate): very good activity; also recorded: did work well
- cleaning efficacy within one hour ([1]; SDS 1%, within one hour): perfect cleaning efficacy
- detergent capable of dislodging biofilms [1]: capable of dislodging biofilms
